In PubChem BioAssay (NCI) one finds TGI and GI50 data, which are given here for 23 compounds.

“And” between values parts separate entries of the source, which are not always exact repeats. Equal values may be shown once.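 Where inhibition never reached the appropriate level, the endpoint shown equals the highest concentration tested. Otherwise, values were interpolated linearly from a five-concentration, 48-hour dose response in 96-well plates. GI50 marks 50% less growth. TGI: concentration producing complete growth inhibition.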

Test systems include ACHN renal; CCRF-CEM leukemia; COLO 205 colon; IGROV1 ovarian; KM12 colon; NCI-H522 lung; SK-MEL-5 melanoma; TK-10 renal; UO-31 renal; M14 melanoma.
Assay in all cases: DTP human tumour cell line panel, 48 h

With `CCOC(=O)Nc1sc2c(c1C#N)CCCC2`, the total growth inhibition concentration (TGI) in the test on ACHN renal, in the test on CCRF-CEM leukemia, in the test with COLO 205 colon, in the test on IGROV1 ovarian, in the test with KM12 colon and in the test on NCI-H522 lung was above 100 µM each time. The concentration for total growth inhibition (TGI) with SK-MEL-5 melanoma, in the test on TK-10 renal and in the test with UO-31 renal was above 100 µM each time.
For the compound `CCOP(=O)(OCC)C(F)(F)c1ccc(CC(NC(=O)OC(C)(C)C)C(=O)O)cc1` (stereo not given), the concentration for total growth inhibition (TGI) with ACHN renal, in the test on CCRF-CEM leukemia, in the test with COLO 205 colon, in the test on IGROV1 ovarian, with KM12 colon and with M14 melanoma was above 10 µM each time. In addition, the concentration for total growth inhibition (TGI) with SK-MEL-5 melanoma, in the test with TK-10 renal and in the test on UO-31 renal was above 10 µM throughout.
`O=S(=O)(c1ccccc1)c1cccc2c1NCCC2`: the concentration for total growth inhibition (TGI) (commonly the concentration giving total growth inhibition) in the test with ACHN renal is above 100 µM; with CCRF-CEM leukemia, above 100 µM; with COLO 205 colon, above 10 µM; in the test on IGROV1 ovarian it was above 100 µM; in the test with KM12 colon, above 100 µM; in the test on M14 melanoma it was above 100 µM. Also, the TGI in the test on SK-MEL-5 melanoma was 52 µM; with TK-10 renal, above 100 µM; with UO-31 renal, above 100 µM.
Consider `c1ccc2c3[nH]c(c2c1)=Nc1ccc(cc1)-c1nc2cc(ccc2o1)N=c1[nH]c(c2ccccc12)=Nc1ccc2nc(oc2c1)-c1ccc(cc1)N=3`, for which the TGI in the test on ACHN renal, with CCRF-CEM leukemia, in the test with COLO 205 colon, with IGROV1 ovarian, with KM12 colon and in the test on M14 melanoma was above 100 µM each time. For the same compound, the TGI in the test on NCI-H522 lung, in the test on SK-MEL-5 melanoma and with UO-31 renal was above 100 µM in each case.
Regarding `Cc1ccc(-c2csc(=Nc3ccccc3)n2NC(=O)c2ccncc2)cc1`, the total growth inhibition concentration (TGI) was above 100 µM in the test on ACHN renal; above 67.5 µM in the test on CCRF-CEM leukemia; 82.5 µM in the test on COLO 205 colon; above 100 µM with IGROV1 ovarian; above 100 µM with KM12 colon; above 100 µM with M14 melanoma. Further, the total growth inhibition concentration (TGI) with SK-MEL-5 melanoma is 34.8 µM; with TK-10 renal, above 100 µM; with UO-31 renal, above 100 µM.
Take `COC(=O)[C@@H](O)[C@](O)(CCC(C)C)C(=O)O[C@@H]1C(OC)=C[C@]23CCCN2CCc2cc4c(cc2[C@H]13)OCO4`: the TGI in the test with CCRF-CEM leukemia was above 27 µM; in the test on COLO 205 colon, 2.99 µM; with IGROV1 ovarian, 20 µM; with KM12 colon it was 13 µM; in the test with NCI-H522 lung it was 2.99 µM; in the test on SK-MEL-5 melanoma, 5.99 µM. The compound further returned a TGI in the test on UO-31 renal of 8.42 µM.
Turning to `Oc1ccc2c(c1)c1c(n2CCN2CCOCC2)-c2ccccc2CC1`, the TGI in the test with ACHN renal is above 100 µM; with CCRF-CEM leukemia it was above 100 µM; in the test with IGROV1 ovarian it was 57.6 µM; with KM12 colon, 35.8 µM; with M14 melanoma, 57.3 µM; in the test on TK-10 renal it was 77.9 µM. Also, the total growth inhibition concentration (TGI) in the test on UO-31 renal was above 100 µM.
As for `O=C(OCc1ccccc1)N1CCNCCN(C(=O)OCc2ccccc2)CCNCC1`, the TGI was above 100 µM in the test with ACHN renal; above 100 µM with CCRF-CEM leukemia; above 100 µM in the test with IGROV1 ovarian; 66.1 µM in the test with KM12 colon; 34.5 µM in the test with NCI-H522 lung; 26.7 µM with SK-MEL-5 melanoma. Also, the TGI in the test with TK-10 renal was above 100 µM; in the test with UO-31 renal, 38.5 µM.
With `CCC(=O)NCC1CCCN2CCCCC12` (stereo not given), the total growth inhibition concentration (TGI) with ACHN renal, in the test on CCRF-CEM leukemia, in the test on COLO 205 colon, in the test on KM12 colon, in the test on SK-MEL-5 melanoma and in the test with TK-10 renal was above 100 µM in each case. The compound also registered a TGI in the test on UO-31 renal above 100 µM.
Consider `Cc1cc(Nc2ccc(S(=O)(=O)O)c3cc(S(=O)(=O)O)cc(S(=O)(=O)O)c23)c2ccccc2n1`, for which the concentration for total growth inhibition (TGI) in the test on ACHN renal, with COLO 205 colon, in the test with IGROV1 ovarian, in the test with KM12 colon, in the test on M14 melanoma and in the test with NCI-H522 lung was above 100 µM throughout. Moreover, the TGI in the test with SK-MEL-5 melanoma, with TK-10 renal and in the test on UO-31 renal was above 100 µM throughout.
Take `Cn1c(=O)c2c(nc3n2CC(C(=O)O)N3)n(C)c1=O` (stereo not given): the total growth inhibition concentration (TGI) in the test on ACHN renal, in the test on COLO 205 colon, in the test on IGROV1 ovarian, in the test with KM12 colon, in the test on M14 melanoma and with NCI-H522 lung was above 100 µM each time. Also, the concentration for total growth inhibition (TGI) in the test with SK-MEL-5 melanoma, in the test on TK-10 renal and with UO-31 renal was above 100 µM throughout.
`Oc1ccc(Cc2cc(Cc3ccc(O)cc3)cc(Cc3ccc(O)cc3)c2)cc1`: the TGI in the test on ACHN renal, in the test on IGROV1 ovarian, in the test on KM12 colon, in the test with M14 melanoma, in the test on NCI-H522 lung and in the test with TK-10 renal was above 50 µM each time. Further, the TGI with UO-31 renal is above 50 µM.
Turning to `COc1ccc2[nH]cc(/C=C(/C)c3ccncc3)c2c1`, the TGI is above 100 µM with CCRF-CEM leukemia; 16.4 µM and 13.9 µM in the test with COLO 205 colon; above 100 µM in the test on IGROV1 ovarian; above 100 µM with KM12 colon; 21.9 µM and 7.16 µM in the test with NCI-H522 lung; 9.24 µM in the test on SK-MEL-5 melanoma. In addition, the concentration for total growth inhibition (TGI) with UO-31 renal is 28.4 µM and 96.4 µM. Further, the GI50 (commonly the concentration giving 50% growth inhibition) with KM12 colon was 0.796 µM; with NCI-H522 lung, 3.99 µM; with UO-31 renal, 3.85 µM.
For the compound `CC1=C(Cl)C=CP(=O)(Oc2ccccc2)C1` (stereo not given), the TGI is above 100 µM in the test on ACHN renal; above 10 µM in the test on CCRF-CEM leukemia; above 100 µM in the test with COLO 205 colon; above 100 µM in the test on IGROV1 ovarian; above 100 µM in the test on KM12 colon; 38.2 µM in the test with M14 melanoma. Moreover, the total growth inhibition concentration (TGI) was 29.9 µM with NCI-H522 lung, above 100 µM with SK-MEL-5 melanoma and above 100 µM in the test with UO-31 renal.
For the compound `Nc1c(S(=O)(=O)O)cc2cc(S(=O)(=O)O)ccc2c1N=Nc1ccc(-c2ccc(N=Nc3c(N)c(S(=O)(=O)O)cc4cc(S(=O)(=O)O)ccc34)c(S(=O)(=O)O)c2)cc1`, the TGI in the test with CCRF-CEM leukemia, in the test with COLO 205 colon, with IGROV1 ovarian, in the test with KM12 colon, in the test with NCI-H522 lung and with SK-MEL-5 melanoma was above 100 µM in each case. The compound further displayed a TGI with UO-31 renal above 100 µM.
Regarding `CCN(CC)CCNC(=O)c1cc2cc(NC(=O)c3cc4cc([N+](=O)[O-])ccc4[nH]3)ccc2[nH]1`, the total growth inhibition concentration (TGI) was above 100 µM with ACHN renal; 28.9 µM with COLO 205 colon; above 100 µM in the test on IGROV1 ovarian; above 100 µM in the test with M14 melanoma; above 100 µM in the test on SK-MEL-5 melanoma; 48.6 µM with TK-10 renal. The TGI in the test on UO-31 renal was above 100 µM.
In the case of `Cc1cccc(Cn2c3c(c4cc(O)ccc42)C(=O)c2ccccc2C3=O)c1`, the TGI in the test with ACHN renal is above 100 µM; in the test on CCRF-CEM leukemia, above 100 µM; in the test with COLO 205 colon it was above 100 µM; in the test with IGROV1 ovarian, above 71 µM; in the test on KM12 colon, above 100 µM; in the test on M14 melanoma it was above 100 µM. Besides, the concentration for total growth inhibition (TGI) in the test on SK-MEL-5 melanoma, in the test on TK-10 renal and in the test on UO-31 renal was above 100 µM throughout.
`COC(=O)C1CC(C=[N+](C)C)=C(SC)N1C(=O)OCc1ccccc1` (stereo not given): the total growth inhibition concentration (TGI) with ACHN renal, in the test on COLO 205 colon, with IGROV1 ovarian, in the test on KM12 colon, in the test on M14 melanoma and in the test on NCI-H522 lung was above 100 µM throughout. The total growth inhibition concentration (TGI) in the test with SK-MEL-5 melanoma, in the test with TK-10 renal and with UO-31 renal was above 100 µM in each case.
Turning to `O=C(N/N=C/c1ccc(Cl)cc1)c1c(Cl)c(Cl)c(Cl)c(Cl)c1-c1nc2ccccc2[nH]1`, the concentration for total growth inhibition (TGI) with ACHN renal, in the test on CCRF-CEM leukemia, with COLO 205 colon, with IGROV1 ovarian, in the test on KM12 colon and in the test with M14 melanoma was above 100 µM each time. Also, the TGI in the test with NCI-H522 lung, in the test on SK-MEL-5 melanoma and in the test on UO-31 renal was above 100 µM each time.
As for `CC1(C)O[C@H]2OC(CO[Si](C)(C)C(C)(C)C)C(N=[N+]=[N-])[C@H]2O1` (stereo not given in full), the total growth inhibition concentration (TGI) was found to be 38.6 µM in the test on ACHN renal; 38.3 µM in the test on CCRF-CEM leukemia; 21.8 µM with IGROV1 ovarian; 34.2 µM in the test on KM12 colon; 43.9 µM in the test with M14 melanoma; 36.7 µM with TK-10 renal. For the same compound, the TGI with UO-31 renal turned out to be 32.3 µM.
With `CCCCCCCC/C=C\CCCCCCCCCCCC(=O)O`, the TGI in the test on CCRF-CEM leukemia was 57.5 µM; in the test on COLO 205 colon it was 40.4 µM; with IGROV1 ovarian, above 125 µM; in the test with KM12 colon, 70.8 µM; in the test on NCI-H522 lung, 40 µM; with SK-MEL-5 melanoma it was 57.5 µM. For the same compound, the total growth inhibition concentration (TGI) in the test on UO-31 renal is above 125 µM.
In the case of `COc1nncc2[nH]c(-c3ccccc3)cc12`, the TGI in the test on ACHN renal, in the test on CCRF-CEM leukemia, with COLO 205 colon, in the test with IGROV1 ovarian, in the test on KM12 colon and with M14 melanoma was above 100 µM each time. Also, the TGI in the test on SK-MEL-5 melanoma, in the test with TK-10 renal and in the test with UO-31 renal was above 100 µM each time.
As to `COc1ccc(-n2c(C)nc3ccc(NC(=S)Nc4ccccc4)cc3c2=O)cc1`, the TGI in the test with ACHN renal, in the test with COLO 205 colon, in the test with IGROV1 ovarian, with KM12 colon, in the test with NCI-H522 lung and with SK-MEL-5 melanoma was above 100 µM throughout. The TGI in the test with TK-10 renal and in the test with UO-31 renal was above 100 µM throughout.
